≈ marks a conversion by molar mass, not a printed value. Calls of active or inactive are those of the source. No cut-off for these calls is given here.
Legend:
P388 [1] = assay: Cytotoxicity against mouse P388 cells; assay type: functional, cell-based
P388 [2] = assay: In vivo cytotoxicity against mouse P388 cells; assay type: functional, organism-based
[3] = Cytotoxicity against mouse B16-F1 cells; assay type: functional, cell-based

Structure (SMILES): CC/C=C/C(CC)CC(C)CC1(CC)C=C(CC)C(C(=O)O)OO1 (stereo not drawn)
- IC50 (P388 [1]): 0.055 µg/mL (≈ 0.162 µM)
- Activity (P388 [2]): inactive

Structure (SMILES): COC(=O)C[C@@H]1OO[C@@](C)(/C(C)=C/C(C)=C/Cc2ccccc2)C[C@H]1C
- IC50 [3]: 12 µg/mL (≈ 33.5 µM)
- Activity (P388 [2]): inactive

Structure (SMILES): CC/C=C/C(CC)CC(C)Cc1cc(CC)c(CC(=O)O)o1 (stereo not drawn) [GLANVILLIC ACID A]
- IC50 (P388 [1]): > 20 µg/mL

Structure (SMILES): CCCC(CC)CC(C)Cc1cc(CC)c(CC(=O)O)o1 (stereo not drawn) [GLNVILLIC ACID B]
- IC50 (P388 [1]): > 20 µg/mL

Structure (SMILES): COC(=O)C[C@@H]1OO[C@@](C)(/C(C)=C/C=C/Cc2ccccc2)C[C@H]1C [METHYL CAPUCINOATE A]
- IC50 [3]: 12 µg/mL (≈ 34.8 µM)
- Activity (P388 [2]): inactive

From ChEMBL document CHEMBL1150562, “Glánvillic acids A and B and methyl capucinoate A, new metabolites isolated from the Caribbean sponges Plakortis halichondrioides and Plakinastrella onkodes” (J Nat Prod, 2001)
